According to patent US7989008B2, “Cosmetic preparations designed to reduce unsightly cellulite” (Menarini Industrie Farmaceutiche Riunite S.R.L., priority 2007, dated 2011):

Each molecule was assayed on tissue affected by cellulite (surface temperature of the skin) (assay: Liquid-crystal thermography, indirect instrumental assessment of treatment efficacy). Settings: after repeated treatment.
Assay type: in vivo, women
From the text: Liquid-crystal thermography was used to conduct an indirect instrumental assessment of the efficacy of the treatment. On the basis of the surface temperature, this technique distinguishes between normal adipose tissue and tissue affected by cellulite, in which the reduced blood flow causes progressive cooling of the skin, proportional to the severity of the cosmetic problem. After repeated treatment with compound (I), the difference in temperature between the normal skin area (unaffected by cellulite) and the affected area had reduced considerably, about 70% of the temperature reduction previously observed having been eliminated. The effects of treatment with compounds A and B were evaluated for comparison purposes.
`CC1(C)C(=O)NN=C1c1ccc(NC2=C(Cc3cccc(C#N)c3)C(=O)CCC2)c(F)c1F` [Compound A, 3-[2-[4-(4,4-dimethyl-5-oxo-4,5-dihydro-1-H-pyrazol-3-yl)-2,3-difluoro-phenylamine]-6-oxocyclohex-1-enylmethyl]-benzonitrile] was tested, and the “temperature difference between normal skin area and area affected by cellulite eliminated” value was roughly 50%.
With `CC1(C)C(=O)NN=C1c1ccc(NC2=C(Cc3ccc(F)cc3)C(=O)CCC2)cc1F` [Compound B, 5-{4-[2-(4-fluoro-benzyl)-3-oxo-cyclohex-1-enylamine]-2-fluoro-phenyl}-4,4-dimethyl-2,4-dihydro-pyrazol-3-one] the “temperature difference between normal skin area and area affected by cellulite eliminated” value was roughly 50%.
With `CC1(C)C(=O)NN=C1c1ccc(NC2=C(Cc3ccc(F)cc3)C(=O)CCC2)c(F)c1F` [Compound of formula (I), 5-{4-[2-(4-fluoro-benzyl)-3-oxo-cyclohex-1-enylamine]-2,3-difluoro-phenyl}-4,4-dimethyl-2,4-dihydropyrazol-3-one] the “temperature difference between normal skin area and area affected by cellulite eliminated” value was “about 70%”.
